Results on two compounds are retold here after patent US8778984B2, “Aldosterone synthase inhibitor” (Eli Lilly and Company, priority 2011, dated 2014).

One test has as its target T1, human cyp11B1 (Homo sapiens, UniProt P15538).
T1 construct: expressed in transfected cells
T1 sequence (P15538 25-503): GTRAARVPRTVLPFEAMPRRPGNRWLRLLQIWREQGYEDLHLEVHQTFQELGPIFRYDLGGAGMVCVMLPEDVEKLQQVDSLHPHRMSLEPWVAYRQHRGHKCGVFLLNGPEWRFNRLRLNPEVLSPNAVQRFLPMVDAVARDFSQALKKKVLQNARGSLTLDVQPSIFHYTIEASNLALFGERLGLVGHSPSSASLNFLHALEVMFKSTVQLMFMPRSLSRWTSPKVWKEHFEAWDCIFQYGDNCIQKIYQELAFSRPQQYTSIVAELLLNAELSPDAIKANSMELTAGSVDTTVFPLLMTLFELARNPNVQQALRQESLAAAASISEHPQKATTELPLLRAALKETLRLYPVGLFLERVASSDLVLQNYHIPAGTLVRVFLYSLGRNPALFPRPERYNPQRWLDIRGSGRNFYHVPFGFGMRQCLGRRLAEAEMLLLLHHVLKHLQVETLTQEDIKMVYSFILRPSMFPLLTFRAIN
Description: Cortisol Inhibition Assay (V79-human cyp11B1 cells, cortisol by LC-MS). The format is cell-based. The following applies: for Selectivity Ratio: IC50(hcyp11B1)/IC50(hcyp11B2); for IC50: V79-human cyp11B1 cells, cortisol production from 1 μM 11-deoxycortisol, 24 hours incubation, read-out: IC50 (hcyp11B1). On the procedure: Chinese hamster fibroblast cells (V79) constitutively expressing human cyp11B1 are established by transfection with a mammalian expression vector harboring the human cyp11B1 cDNA under CMV promoter and a neomycin antibiotic resistant gene for selection in mammalian cells. V79 cells are transfected in T225 cm^2 flasks with the lipofectamine transfection reagent and the human cyp11B1 cDNA. Positive clones are selected with the selection antibiotic geneticin at 1 mg/mL. Cortisol production from transfected cells is initiated by the addition of 1 μM 11-deoxycortisol in the medium. After 24 hours incubation, culture medium is collected and cortisol concentration in the medium is determined using a liquid chromatography-mass spectrometry (LC-MS) method. The cell media (100 μL) is transferred to a new deep-well 96-well plate. A Beckman Coulter FX liquid handling system (modified for use with organic solvents) with a 96-tip head is used to add an IS solution to each well (10 μl of 200 ng/mL d-4-cortisol). The wells are then extracted 3× with EtOAc (300 μl) using the FX, combining the organic layers in a new deep-well 96-well plate. The solvent is then dried in a GeneVac HT-4 or under nitrogen. The FX is then used to reconstitute the samples in 50% MeOH/water (100 μl) and the plates are heat-sealed.
A 40 μl aliquot of the sample is injected and a gradient from 20-100% MeOH in 0.95 min is initiated. […] Starting conditions are then held for 1 minute to re-equilibrate the column. An ABI QTRAP 4000 tandem mass spectrometer is used for MS/MS analysis in the positive ion mode. […] These are respectively integrated to give the peak areas. The cortisol/IS area-ratio is used to determine cortisol concentration by comparison to a standard curve. The detection limit for cortisol is 1 ng/mL.
11-Deoxycortisol and various concentrations of test compounds in 1:3 dilution increments are added to the cell culture medium. After 24 hours incubation, 100 μl of cell medium are collected and cortisol concentration determined as described above. Data are fit to a 4 parameter-fit logistics curve to determine IC50 values.

In test [1] the target is T2, cynomolgus monkey cyp11B2 (Macaca fascicularis, UniProt A0A2K5UPL9).
T2 construct: expressed in transfected cells; host or cells: Chinese hamster fibroblast V79 cells
T2 sequence (A0A2K5UPL9 1-503): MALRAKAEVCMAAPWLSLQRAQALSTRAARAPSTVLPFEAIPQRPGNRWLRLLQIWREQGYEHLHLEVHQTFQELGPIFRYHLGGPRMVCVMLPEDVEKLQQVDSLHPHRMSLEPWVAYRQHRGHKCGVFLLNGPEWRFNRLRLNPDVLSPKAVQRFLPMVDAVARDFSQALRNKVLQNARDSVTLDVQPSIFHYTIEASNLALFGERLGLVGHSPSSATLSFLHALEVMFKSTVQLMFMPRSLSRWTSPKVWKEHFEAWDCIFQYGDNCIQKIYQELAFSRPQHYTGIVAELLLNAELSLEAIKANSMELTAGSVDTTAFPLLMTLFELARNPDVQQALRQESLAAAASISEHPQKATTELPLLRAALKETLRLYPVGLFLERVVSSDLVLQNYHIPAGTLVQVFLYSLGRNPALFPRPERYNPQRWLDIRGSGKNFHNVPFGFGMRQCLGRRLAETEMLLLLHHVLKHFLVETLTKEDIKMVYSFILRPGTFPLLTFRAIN
Description: Cynomolgus Monkey Aldosterone Inhibition Assay. Format: cell-based. As to conditions: V79 cells expressing cynomolgus monkey cyp11B2; n=1; read-out: relative IC50, cynomolgus monkey aldosterone inhibition assay. The method, then: Chinese hamster fibroblast cells (V79) constitutively expressing cynomolgus monkey cyp11B2 is established by transfection with a mammalian expression vector harboring the cynomolgus monkey cyp11B2 cDNA. This cell line was used to measure the activity of compounds in inhibiting […] from cynomolgus monkey enzyme. Cell culture condition and aldosterone detection method is performed following the same protocol described in the “Aldosterone inhibition assay”.

As for `CC1(C)C[C@H](c2ccc(C#N)cc2)c2cn[nH]c21` (single isomer, unassigned) [Example 1], on human cyp11B1, the “Selectivity Ratio” value is 33.0 and the IC50 worked out at 165 nM. In addition, the IC50 in test [1] was found to be 2.46 nM.
`CC1(C)CC(c2ccc(C#N)cc2F)c2cn[nH]c21` (single isomer, unassigned; isomer 1) [Example 49, 4-(6,6-Dimethyl-4,5-dihydro-1H-cyclopenta[c]pyrazol-4-yl)-3-fluoro-benzonitrile, isomer 1]: the “Selectivity Ratio” value on human cyp11B1 amounted to 44.4. Further, the IC50 was found to be 311 nM at human cyp11B1 and 4.1 nM in test [1].
